The source of these data is patent US20230146233A1, “A CLASS OF POLYCYCLIC COMPOUNDS INHIBITING RNA HELICASE DHX33 AND THE APPLICATION THEREOF” (Shenzhen KeYe Life Technologies, Co., Ltd, priority 2020, published 2023).

For this experiment, the system named is U251-MG cells. Nature of the experiment: Half-maximal cell-inhibitory concentration on U251-MG cells (CCK-8). Format: cell-based. The settings on record: Homo sapiens, U-251, U251-MG cells (DHX33-overexpressing cancer cell strain), 48 hours, read-out: IC50 (half-maximal inhibitory concentrations of compounds on U251-MG cells). The protocol: U251-MG cells were purchased from the cell bank of the Chinese Academy of Sciences. Cells were cultured in MEM medium containing 10% fetal bovine serum (FBS), 2 mM L-glutammie, streptomycmn and penicillin. The growth conditions were set as follows: a humidified cell incubator (37° C., 5% CO2). Cells were passaged every 3 days and were discarded after 10 passages.
U251-MG cells (a […]-overexpressing cancer cell strain) were seeded on a 96-well plate at 1×10^4 cells/100 μl/well. After the cells were completely attached, the compounds were added to the cell culture medium at a concentration of 5 nM, 10 nM, 25 nM, 50 nM, 100 nM, […], 500 nM, 1000 nM, 2000 nM, […] or 20 μM, and the resulting mixture was uniformly mixed with a multichannel pipette. After the cells were incubated with the compound for 48 hours, CCK-8 reagent (Yeasen Biotechnology (Shanghai) Co., Ltd.) was added to the medium in the 96-well plate in accordance with the standard procedure. After being incubated for 2 hours, the plate was read with a microplate reader (OD=450 nm). The experiment was repeated three times, the inhibition curve of the compound at different concentrations was plotted, and the half-maximal inhibitory concentration (IC50) of the compound was calculated.
As to `COc1cc2nc(/C(C#N)=C/c3cc(C)n(-c4sc(C)c(C)c4C#N)c3C)[nH]c2cn1` [AB24308, (E)-2-(3-(2-cyano-2-(6-methoxy-3H-imidazo[4,5-c]pyridin-2-yl)vinyl)-2,5-dimethyl-1H-pyrrol-1-yl)-4,5-dimethylthiophene-3-carbonitrile], the IC50 was below 100 nM.

In the case of `COc1nccc2nc(/C(C#N)=C/c3cc(C)n(-c4sc(C)c(C)c4C#N)c3C)[nH]c12` [AB24309], the IC50 fell in the range of 1000 to 5000 nM.

`COc1ccnc2nc(/C(C#N)=C/c3cc(C)n(-c4sc(C)c(C)c4C#N)c3C)[nH]c12` [AB24310, (E)-2-(3-(2-cyano-2-(7-methoxy-1H-imidazo[4,5-b]pyridin-2-yl)vinyl)-2,5-dimethyl-1H-pyrrol-1-yl)-4,5-dimethylthiophene-3-carbonitrile]: the IC50 lay in the range of 5000 to 20000 nM.

Turning to `COC(=O)c1cc(C)sc1-n1c(C)cc(/C=C(\C#N)c2nc3cc(OC)ncc3[nH]2)c1C` [AB24311, methyl (E)-2-(3-(2-cyano-2-(6-methoxy-3H-imidazo[4,5-c]pyridin-2-yl)vinyl)-2,5-dimethyl-1H-pyrrol-1-yl)-5-methylthiophene-3-carboxylate], the IC50 is below 100 nM.

Take `COc1cc2nc(/C(C#N)=C/c3cc(C)n(-c4sc(C)cc4C(N)=O)c3C)[nH]c2cn1` [AB24313, (E)-2-(3-(2-cyano-2-(6-methoxy-3H-imidazo[4,5-c]pyridin-2-yl)vinyl)-2,5-dimethyl-1H-pyrrol-1-yl)-5-methylthiophene-3-carboxamide]: the IC50 lay within 100 to 1000 nM.

For the compound `COC(=O)c1c(-n2c(C)cc(/C=C(\C#N)c3nc4cc(OC)ncc4[nH]3)c2C)sc(C)c1C` [AB24316], the IC50 fell in the range of 100 to 1000 nM.

`CCc1cc(C#N)c(-n2c(C)cc(/C=C(\C#N)c3nc4cc(OC)ncc4[nH]3)c2C)s1` [AB24317, (E)-2-(3-(2-cyano-2-(6-methoxy-3H-imidazo[4,5-c]pyridin-2-yl)vinyl)-2,5-dimethyl-1H-pyrrol-1-yl)-5-ethylthiophene-3-carbonitrile]: the IC50 was below 100 nM.

With `COc1cc2nc(/C(C#N)=C/c3cc(C)n(-c4sc(C)nc4C)c3C)[nH]c2cn1` [AB24319], the IC50 lay within 100 to 1000 nM.

Regarding `CCOC(=O)c1cc(C#N)c(-n2c(C)cc(/C=C(\C#N)c3nc4cc(OC)ncc4[nH]3)c2C)s1` [AB24320], the IC50 lay within 1000 to 5000 nM.

As to `COc1cc2nc(/C(C#N)=C/c3cc(C)n(-c4sc(Br)cc4C#N)c3C)[nH]c2cn1` [AB24323, (E)-5-bromo-2-(3-(2-cyano-2-(6-methoxy-3H-imidazo[4,5-c]pyridin-2-yl)vinyl)-2,5-dimethyl-1H-pyrrol-1-yl)thiophene-3-carbonitrile], the IC50 was below 100 nM.

On to `COc1cc2nc(/C(C#N)=C/c3cc(C)n(-c4sc(C5CC5)cc4C#N)c3C)[nH]c2cn1` [AB24324, (E)-2-(3-(2-cyano-2-(6-methoxy-3H-imidazo[4,5-c]pyridin-2-yl)vinyl)-2,5-dimethyl-1H-pyrrol-1-yl)-5-cyclopropylthiophene-3-carbonitrile], for which the IC50 is below 100 nM.

Regarding `COc1cc2nc(/C(C#N)=C/c3cc(C)n(-c4sc(C(C)C)cc4C#N)c3C)[nH]c2cn1` [AB24325, (E)-2-(3-(2-cyano-2-(6-methoxy-3H-imidazo[4,5-c]pyridin-2-yl)vinyl)-2,5-dimethyl-1H-pyrrol-1-yl)-5-isopropylthiophene-3-carbonitrile], the IC50 fell in the range of 100 to 1000 nM.

On to `COc1cc2nc(/C(C#N)=C/c3cc(C)n(-c4sc(C(C)(C)C)cc4C#N)c3C)[nH]c2cn1` [AB24326], for which the IC50 was in the range of 100 to 1000 nM.

For `COc1cc2nc(/C(C#N)=C/c3cc(C)n(-c4sc(Cc5ccccc5)cc4C#N)c3C)[nH]c2cn1` [AB24328, (E)-5-benzyl-2-(3-(2-cyano-2-(6-methoxy-3H-imidazo[4,5-c]pyridin-2-yl)vinyl)-2,5-dimethyl-1H-pyrrol-1-yl)thiophene-3-carbonitrile], the IC50 was in the range of 100 to 1000 nM.

As for `COc1cnc2[nH]c(/C(C#N)=C/c3cc(C)n(-c4sc(C)cc4C#N)c3C)nc2c1` [AB24333, (E)-2-(3-(2-cyano-2-(6-methoxy-3H-imidazo[4,5-b]pyridin-2-yl)vinyl)-2,5-dimethyl-1H-pyrrol-1-yl)-5-methylthiophene-3-carbonitrile], the IC50 was below 100 nM.

Take `COc1cc2nc(/C(C#N)=C/c3cnn(-c4sc(C)cc4C#N)c3C)[nH]c2cn1` [AB24334, (E)-2-(4-(2-cyano-2-(6-methoxy-3H-imidazo[4,5-c]pyridin-2-yl)vinyl)-5-methyl-1H-pyrazol-1-yl)-5-methylthiophene-3-carbonitrile]: the IC50 lay within 100 to 1000 nM.

Take `COc1cc2nc(/C(C#N)=C/c3cc(C)n(-c4sc(-c5cccnc5)cc4C#N)c3C)[nH]c2cn1` [AB24337]: the IC50 lay in the range of 1000 to 5000 nM.

Take `COc1cc2nc(/C(C#N)=C/c3cc(C)n(-c4sc(-c5ccncc5)cc4C#N)c3C)[nH]c2cn1` [AB24338]: the IC50 lay within 1000 to 5000 nM.

Regarding `Cc1cc(C#N)c(-n2c(C)cc(/C=C(\C#N)c3nc4cc(Cl)ncc4[nH]3)c2C)s1` [AB24341, (E)-2-(3-(2-(6-chloro-3H-imidazo[4,5-c]pyridin-2-yl)-2-cyanovinyl)-2,5-dimethyl-1H-pyrrol-1-yl)-5-methylthiophene-3-carbonitrile], the IC50 is below 100 nM.

In the case of `COc1cc2cc(/C(C#N)=C/c3cc(C)n(-c4sc(C)cc4C#N)c3C)[nH]c2cn1` [AB24342, (Z)-2-(3-(2-cyano-2-(5-methoxy-1H-pyrrolo[2,3-c]pyridin-2-yl)vinyl)-2,5-dimethyl-1H-pyrrol-1-yl)-5-methylthiophene-3-carbonitrile], the IC50 fell in the range of 100 to 1000 nM.

As to `COC(=O)c1nc(C)sc1-n1c(C)cc(/C=C(\C#N)c2nc3cc(OC)ncc3[nH]2)c1C` [AB24345], the IC50 lay in the range of 100 to 1000 nM.

As to `COc1cc2nc(/C(C#N)=C(\C)c3cc(C)n(-c4sc(C)cc4C#N)c3C)[nH]c2cn1` [AB24347, (E)-2-(3-(1-cyano-1-(6-methoxy-3H-imidazo[4,5-c]pyridin-2-yl)prop-1-en-2-yl)-2,5-dimethyl-1H-pyrrol-1-yl)-5-methylthiophene-3-carbonitrile], the IC50 is 100 to 1000 nM.

Consider `COc1cc2nc(/C(C#N)=C/c3cc(C)n(-c4sc(C)nc4C#N)c3C)[nH]c2cn1` [AB24348, (E)-5-(3-(2-cyano-2-(6-methoxy-3H-imidazo[4,5-c]pyridin-2-yl)vinyl)-2,5-dimethyl-1H-pyrrol-1-yl)-2-methylthiazole-4-carbonitrile], for which the IC50 is below 100 nM.

Take `COc1cc2nc(/C(C#N)=C/c3cc(C)n(-c4sc(Cl)cc4C#N)c3C)[nH]c2cn1` [AB24349]: the IC50 is below 100 nM.

Turning to `COc1cc2nc(/C(C#N)=C/c3cc(C)n(-c4sc(C)cc4C#N)c3C)n(C)c2cn1` [AB24352, (E)-2-(3-(2-cyano-2-(6-methoxy-3-methyl-3H-imidazo[4,5-c]pyridin-2-yl)vinyl)-2,5-dimethyl-1H-pyrrol-1-yl)-5-methylthiophene-3-carbonitrile], the IC50 fell in the range of 100 to 1000 nM.

For the compound `Cc1cc(C#N)c(-n2c(C)cc(/C=C(\C#N)c3nc4cc(N(C)C)ncc4[nH]3)c2C)s1` [AB24355, (E)-2-(3-(2-cyano-2-(6-(dimethylamino)-3H-imidazo[4,5-c]pyridin-2-yl)vinyl)-2,5-dimethyl-1H-pyrrol-1-yl)-5-methylthiophene-3-carbonitrile], the IC50 is below 100 nM.

For the compound `COc1ccc2c(c1)[nH]c1cc(-c3cc(C)n(-c4sc(C)cc4C#N)c3C)c(C)cc12` [AB24374, 2-(3-(7-methoxy-3-methyl-9H-carbazol-2-yl)-2,5-dimethyl-1H-pyrrol-1-yl)-5-methylthiophene-3-carbonitrile], the IC50 lay within 5000 to 20000 nM.

As to `COc1ccc2[nH]c3cc(-c4cc(C)n(-c5sc(C)cc5C#N)c4C)ccc3c2c1` [AB24375, 2-(3-(6-methoxy-9H-carbazol-2-yl)-2,5-dimethyl-1H-pyrrol-1-yl)-5-methylthiophene-3-carbonitrile], the IC50 fell in the range of 5000 to 20000 nM.

On to `COc1ccc2nc3cc(-c4cc(C)n(-c5sc(C)cc5C#N)c4C)ccc3n2c1` [AB24385, 2-(3-(2-methoxybenzo[4,5]imidazo[1,2-a]pyridin-7-yl)-2,5-dimethyl-1H-pyrrol-1-yl)-5-methylthiophene-3-carbonitrile], for which the IC50 lay within 1000 to 5000 nM.

On to `COc1cc2nc(/C(C#N)=C/c3cc(C)n(Cc4ccco4)c3C)[nH]c2cn1` [AB24397, (E)-3-(1-(furan-2-ylmethyl)-2,5-dimethyl-1H-pyrrol-3-yl)-2-(6-methoxy-3H-imidazo[4,5-c]pyridin-2-yl)acrylonitrile], for which the IC50 was below 100 nM.

For the compound `COc1cc2nc(/C(C#N)=C/c3cc(C)n(Cc4ccccc4)c3C)[nH]c2cn1` [AB24398, (E)-3-(1-benzyl-2,5-dimethyl-1H-pyrrol-3-yl)-2-(6-methoxy-3H-imidazo[4,5-c]pyridin-2-yl)acrylonitrile], the IC50 was below 100 nM.

As for `COc1cc2nc(NC(=O)c3cc(C)n(-c4sc(C)nc4C#N)c3C)[nH]c2cn1` [AB29502, 1-(4-cyano-2-methylthiazol-5-yl)-N-(6-methoxy-3H-imidazo[4,5-c]pyridin-2-yl)-2,5-dimethyl-1H-pyrrole-3-carboxamide], the IC50 is 100 to 1000 nM.

In the case of `COc1ccc2nc(NC(=O)c3cc(C)n(-c4sc(C)nc4C)c3C)[nH]c2c1` [AB29505, 1-(2,4-dimethylthiazol-5-yl)-N-(6-methoxy-1H-benzo[d]imidazol-2-yl)-2,5-dimethyl-1H-pyrrole-3-carboxamide], the IC50 lay within 100 to 1000 nM.
